# In patent US20140378541A1, “Synthetic Epigallocatechin Gallate (EGCG) Analogs” (WAYNE STATE UNIVERSITY, priority 2011, published 2014):
# Target: T1, purified rabbit 20S proteasome (Oryctolagus cuniculus, UniProt G1T4Q9)
# T1 sequence (G1T4Q9 60-263): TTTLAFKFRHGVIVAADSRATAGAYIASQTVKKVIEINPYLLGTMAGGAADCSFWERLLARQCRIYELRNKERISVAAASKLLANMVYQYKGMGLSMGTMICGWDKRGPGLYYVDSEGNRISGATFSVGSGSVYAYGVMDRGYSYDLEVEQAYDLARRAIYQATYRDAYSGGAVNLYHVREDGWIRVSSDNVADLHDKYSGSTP
# Experiment: Inhibition of chymotrypsin-like activity of purified 20S proteasome
# Type: biochemical
# Conditions: purified 20S proteasome, concentration not stated
# Method: Purified 20S proteasome was incubated with compound 5, 7, 16, or 21 (A) or MDA-MB-231 cell extract (5.7 μg) was incubated with compound 6, 8, 17, or 22 (B) at indicated concentrations for 2 hours, followed by measuring the proteasomal chymotrypsin-like activity. EGCG was used as a comparative standard.
# Purified rabbit 20S proteasome and fluorogenic substrate Suc-LLVY-AMC for the proteasomal chymotrypsin like (CT-like) activity were obtained from Calbiochem Inc. (San Diego, Calif.). Fetal bovine serum (FBS) was from Tissue Culture Biologicals (Tulare, Calif.). Penicillin and streptomycin were purchased from Invitrogen Co. (Carlsbad, Calif.). RPMI 1640 medium was purchased from Invitrogen Co. (Carlsbad, Calif.). MTT (3-4,5-dimethylthiazol-2-yl-2.5-diphenyl-tetrazolium bromide) was purchased from Sigma-Aldrich.
# A purified rabbit 20S proteasome (35 ng) was incubated with 20 μM of substrate Suc-LLVY-AMC in 100 μl assay buffer (20 mM Tris-HCl, pH 7.5), in the presence of EGCG or EGCG analogs at different concentrations or the solvent for 2 h at 37° C., followed by measurement of hydrolysis of the fluorogenic substrates using a Wallac Victor3™ multi-label counter with 355-nm excitation and 460-nm emission wavelengths.
smiles,measurement,value
"O=C(O[C@@H]1Cc2c(O)cc(O)cc2O[C@@H]1c1cc(O)c(O)c(O)c1)c1cc(O)c(O)c(O)c1 [Compound 1, (−)-Epigallocatechin gallate, reference compound]",proteasomal inhibition (in words),potently inhibited
